Experimental data as given in article PMC6379368, “Extracellular and intracellular small-molecule galectin-3 inhibitors” (Scientific Reports, 2019).

What was measured:
Assay type in all cases: cell-based
[1] = molecular target: galectin-3 (Homo sapiens, UniProt P17931); test: GPN-induced galectin-3 accumulation (puncta) in JIMT-1 breast cancer cells; design: In the intracellular assay, in contrast, only endogenous galectin was present; endogenous in cells; host or cells: JIMT-1 breast cancer cells
Method: The total number of galectin-3 puncta and nuclei in the microscopy images were quantified using the software ImageJ.
Cells were seeded in multi-well plates with sterile glass coverslips placed in each well and allowed to adhere to the cell culture surface for at least 24 hours. Then the cells were pre-treated with the different galectin-3 inhibitors at different concentrations (or DMSO as control) for 15 minutes or 24 hours followed by addition of the lysosomal damaging peptide GPN[42] and incubated another 13 minutes, with the inhibitors still present. The 13-minute incubation with GPN and 15-minute pre-incubation with inhibitors were done in DMEM/Ham’s F12 medium with 15 mM HEPES buffer (without serum), whereas the 24-hour incubation with inhibitors were performed in fully supplemented DMEM/Ham’s F12 medium (as described under Cell culture).
After treatment with GPN, the cells were fixed in 3.7% (v/v) formaldehyde in phosphate-buffered saline (PBS) for 15 minutes, permeabilized and blocked using 1% (v/v) TWEEN 20 and 5% (w/v) BSA in PBS for 30 minutes, then incubated with primary and secondary antibodies for one hour each (washed with PBS in between). Primary and secondary antibodies for galectin-3 staining were a rat anti-mouse galectin-3 IgG antibody[50],[51] […] All antibodies were diluted in 0.05% TWEEN 20 and 5% BSA in PBS. […] The coverslips were mounted on glass slides using Mowiol® 4–88 and left at 8 °C overnight before further examination. For imaging of the cells, a LSM-510 confocal laser scanning microscope (Carl Zeiss Microscopy GmbH, Oberkochen, Germany), equipped with a Hamamatsu R6357 photomultiplier (Hamamatsu Photonics K.K., Hamamatsu, Japan), was used. […] Maximum intensity projections of each picture obtained were analyzed with ImageJ 1.47 v (Rasband, W.S., ImageJ, U. S. National Institutes of Health, Bethesda, Maryland, USA) to quantify the number of galectin-3 dots and the number of nuclei in each picture. The quantification of particles (i.e. galectin-3 puncta/nucleus) was carried out using batch processing in the software, where a single macro (including parameters such as image thresholds, particle size and circularity) was used for all images obtained from a single experiment, this to reduce user bias and time consumption.

[2] = system: AsPC-1 cells; test: Growth curves, AsPC-1; settings: AsPC-1, 10 µM
Method: (§1) METHODS (not described in main article)
(§2) The AsPC-1, BxPc-3, MIA PaCa-2, and PanC-1 pancreatic cancer cell lines were purchased from the American Type Culture Collection (ATCC) (Manassas, VA, USA). AsPC-1 and BxPc-3 cell lines were cultured in RPMI-1640 medium, and MIA PaCa-2 and PanC-1 in Dulbecco's Modified Eagle Medium (DMEM)/Ham's F12 medium mixture (1:1). The medium of all four pancreatic cancer cell lines was supplemented with 10 % fetal bovine serum (FBS), 100 U/ml penicillin, and 100 μg/ml streptomycin. The L56Br-C1 breast cancer cell line was established at Lund University (Lund, Sweden)1, and was cultured in RPMI-1640 medium supplemented with 10 % heat-inactivated FBS, 100 U/ml penicillin, 100 μg/ml streptomycin, 1 mM non-essential amino acids, and 10 µg/ml insulin. The MCF-10A normal-like breast cell line was obtained from ATCC and was cultured in the same medium mixture as L56Br-C1 with the addition of 20 ng/ml epidermal growth factor, 50 ng/ml cholera toxin, and 500 ng/ml hydrocortisone.
(§3) Fluorescence anisotropy assay
(§4) The affinity between inhibitor 1 and the carbohydrate recognition domain (CRD) of galectin-8C and between inhibitor 3 and the CRD of galectin-2, -4N, -4C, 8C, and -9C was determined using the fluorescence anisotropy assay described in the main article. Experimental conditions used for each galectin […]

[3] = system: L56Br-C1 cells; test: Growth curves, L56Br-C1 breast cancer cells; settings: L56Br-C1, 10 µM
Method: as §1, §2, §3, §4

Sequence of galectin-3 (P17931 whole entry): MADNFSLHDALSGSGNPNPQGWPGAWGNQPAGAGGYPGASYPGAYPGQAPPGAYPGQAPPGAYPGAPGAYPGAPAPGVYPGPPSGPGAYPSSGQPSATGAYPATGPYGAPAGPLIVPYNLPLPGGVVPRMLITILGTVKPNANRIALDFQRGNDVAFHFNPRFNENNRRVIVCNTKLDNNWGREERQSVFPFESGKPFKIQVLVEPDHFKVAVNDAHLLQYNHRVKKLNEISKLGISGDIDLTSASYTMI

In the case of `OC[C@H]1O[C@@H](S[C@@H]2O[C@H](CO)[C@H](O)[C@H](n3cc(-c4cccc(F)c4)nn3)[C@H]2O)[C@H](O)[C@@H](n2cc(-c3cccc(F)c3)nn2)[C@H]1O` [compound 1], the “inhibition of galectin-3 accumulation (extent)” value ([1]; 15 minutes pre-treatment, high concentrations 50–100 µM) is reported as “complete inhibition of galectin-3 accumulation could not be reached”, the “inhibition of galectin-3 accumulation (extent)” value ([1]; 24 hours pre-treatment, around 1–5 µM) is reported as “nearly complete inhibition” and the “cell proliferation (growth curves)” value [2] is reported as “no effect”. The “cell proliferation (growth curves)” value [3] was “no effect”.
